Target: T1, human GR (Homo sapiens, UniProt P04150)
T1 construct: naturally expresses the human GR; endogenous in cells
T1 sequence (P04150 1-777): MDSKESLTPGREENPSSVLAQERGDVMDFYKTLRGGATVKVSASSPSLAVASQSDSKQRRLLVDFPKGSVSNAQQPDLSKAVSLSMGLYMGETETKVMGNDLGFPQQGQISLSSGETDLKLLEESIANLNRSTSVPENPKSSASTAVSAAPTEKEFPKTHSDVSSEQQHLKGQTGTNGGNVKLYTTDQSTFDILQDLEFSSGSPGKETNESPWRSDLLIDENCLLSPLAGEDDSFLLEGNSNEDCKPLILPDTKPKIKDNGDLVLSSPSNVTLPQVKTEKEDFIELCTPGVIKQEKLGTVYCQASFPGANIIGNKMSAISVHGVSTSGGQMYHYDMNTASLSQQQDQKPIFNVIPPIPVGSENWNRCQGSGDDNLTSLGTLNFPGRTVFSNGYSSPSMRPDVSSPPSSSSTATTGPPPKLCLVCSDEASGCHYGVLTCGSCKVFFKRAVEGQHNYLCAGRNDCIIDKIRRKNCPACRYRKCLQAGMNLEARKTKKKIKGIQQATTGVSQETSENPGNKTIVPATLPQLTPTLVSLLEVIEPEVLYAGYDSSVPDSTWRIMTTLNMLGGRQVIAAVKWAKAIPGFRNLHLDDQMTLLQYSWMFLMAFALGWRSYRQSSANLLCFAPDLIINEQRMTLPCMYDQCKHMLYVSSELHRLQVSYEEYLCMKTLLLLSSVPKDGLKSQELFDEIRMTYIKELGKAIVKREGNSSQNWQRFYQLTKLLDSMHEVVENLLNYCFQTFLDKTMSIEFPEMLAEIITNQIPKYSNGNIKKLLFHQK
Test: Transrepression assay (GITAR), TNFα-β-lactamase reporter in U937 cells
Format: cell-based
Details: for EC50 / Transrepression U937 Cells GITAR Emax (%): U937 cells; for EC50: IP = inflection point; for Emax: U-937, U937 cells; for Emax / Transrepression U937 Cells GITAR Emax (%): activity repressed by 100 nM dexamethasone alone set as 100%
Outline: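 U937 cells stably carrying TNFα promoter–β-lactamase, endogenous GR, preincubated with compound 30–45 min at 37° C., then stimulated with 5 ng/ml PMA plus 100 ng/ml LPS for ~18 h. CCF2-AM read-out; repression by 100 nM dexamethasone set as 100%.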

Row | EC50 [µM] | Emax [%] | Transrepression U937 Cells GITAR Emax (%) | Compound
1 | 0.056 | 70 | – | CC[C@]12Cc3cnn(-c4ccc(F)cc4)c3C=C1CC[C@@]2(O)CCc1ncccc1S(C)(=O)=O [Example 80, (4aS,5R)-4a-Ethyl-1-(4-fluorophenyl)-5-{2-[3-(methylsulfonyl)pyridin-2-yl]ethyl}-1,4,4a,5,6,7-hexahydrocyclopenta[f]indazol-5-ol]
2 | 0.008 | 79 | – | OCc1ccccc1CC[C@]1(O)CCC2=Cc3c(cnn3-c3ccc(F)cc3)C[C@@]21C1CC1 [Example 2, (4aR,5R)-4a-Cyclopropyl-1-(4-fluorophenyl)-5-{2-[2-(hydroxymethyl)phenyl]ethyl}-1,4,4a,5,6,7-hexahydrocyclopenta[f]indazol-5-ol]
3 | 0.085 | – | 72 | NC(=O)C(O)c1ccccc1CC[C@]1(O)CCC2=Cc3c(cnn3-c3ccc(F)cc3)C[C@@]21C1CC1 (single isomer, unassigned) [Example 3a]
4 | 0.217 | – | 54 | CC[C@]12Cc3cnn(-c4ccccc4)c3C=C1CC[C@@]2(O)CC(O)c1ccccn1 (single isomer, unassigned) [Example 82a]
5 | 0.053 | 68 | – | CC[C@]12Cc3cnn(-c4ccccc4)c3C=C1CC[C@@]2(O)CCc1ncccc1S(=O)(=O)C(C)C [Example 81, (4aS,5R)-4a-Ethyl-5-{2-[3-(iso-propylsulfonyl)pyridin-2-yl]ethyl}-1-phenyl-1,4,4a,5,6,7-hexahydrocyclopenta[f]indazol-5-ol]
6 | 0.282 | – | 54 | OC(C[C@]1(O)CCC2=Cc3c(cnn3-c3ccc(F)cc3)C[C@@]21C1CC1)c1ccc(F)cn1 (single isomer, unassigned) [Example 79b]
7 | 0.277 | – | 44 | CC[C@]12Cc3cnn(-c4ccccc4)c3C=C1CC[C@@]2(O)CC(O)c1ccccn1 (single isomer, unassigned) [Example 82b]

Reference: patent US20120214847A1, “2-[1-PHENYL-5-HYDROXY-4a-SUBSTITUTED-HEXAHYDROCYCLOPENTA[F]INDAZOL-5-YL]ETHYL PHENYL DERIVATIVES AS GLUCOCORTICOID RECEPTOR LIGANDS” (Merck Sharp & Dohme Corp., priority 2009, published 2012)
